Experiments:
[1] = tested on: Tetranychus urticae with organophosphate resistance; assay: Test Case 2 Efficacy Against Tetranychus urticae; details: 125 ppm wettable powder (Formulation Example 1) applied to bean leaf with female adults; 25° C., humidity 65%; after three days
Aphis gossypii = assay: Test case 1 Efficacy against Aphis gossypii; format: in vivo; details: 125 ppm emulsion (Formulation Example 2) applied to cucumbers parasitized with offspring; 25° C., humidity 65%; after five days
Excerpt: Test case 1 Efficacy against Aphis gossypii
The test was repeated twice.

SMILES	insect mortality rate [1]	insect mortality rate (Aphis gossypii)
Cc1cc(Cl)ccc1N=CN(C)C [chlordimeform]	9%	–
Cc1nc(N(C)C)nc(OC(=O)N(C)C)c1C [pirimicarb]	–	9%

Reference: patent US8598367B2, “Nitrogen-containing heterocyclic compound and pest control agent” (Nippon Soda Co., Ltd., priority 2008, dated 2013)
